A word on the IC50: it is the concentration that inhibits the measured activity by half. As a reminder, the half-life is how long it takes for the measured level to halve.

From publication PMC8434109, “Synthesis and Biological Activity of a Cytostatic Inhibitor of MLLr Leukemia Targeting the DOT1L Protein” (Molecules, 2021) come the findings set out here.

The target in one data set is recombinant hDOT1L (Homo sapiens, UniProt Q8TEK3). The data set can be described thus: AlphaLISA DOT1L enzymatic inhibition assay on purified nucleosomes.
Sequence of recombinant hDOT1L (Q8TEK3 1-416): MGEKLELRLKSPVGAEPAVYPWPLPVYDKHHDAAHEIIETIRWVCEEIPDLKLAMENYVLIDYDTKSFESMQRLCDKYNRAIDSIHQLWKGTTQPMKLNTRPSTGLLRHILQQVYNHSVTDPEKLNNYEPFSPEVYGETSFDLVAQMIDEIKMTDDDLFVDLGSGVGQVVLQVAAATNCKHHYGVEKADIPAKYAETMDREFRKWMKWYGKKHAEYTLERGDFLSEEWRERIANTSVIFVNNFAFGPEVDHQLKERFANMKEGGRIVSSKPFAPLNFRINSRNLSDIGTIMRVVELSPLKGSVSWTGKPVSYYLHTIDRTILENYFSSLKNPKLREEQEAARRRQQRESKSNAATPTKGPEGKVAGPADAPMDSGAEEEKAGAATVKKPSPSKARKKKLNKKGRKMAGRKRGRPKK
The next data set is described as follows: Microsomal stability. The format is in vitro ADME. To be noted: mouse, liver microsomes. For orientation: Microsomes from liver hold many membrane-bound enzymes, among them those of drug oxidation.
For data set [1], the system named is MV4-11 cells. The data set can be described thus: Flow cytometry cell cycle analysis (propidium iodide). The format is cell-based, human. To be noted: MV4-11, 1 µM. How it is done:
(§1) A decrease in the S phase of the cell cycle was also observed from 24% (day 8) to 20% (day 10), 13% (day 12).
(§2) In a 12-well plate, 2 mL exponentially growing MV4-11 cells were plated with a density of 2 × 10^5 cells/mL. […] Culture media and drugs were replaced every 2–3 days and cells were split back to a density of 2 × 10^5 cells/mL at the same time. Cells were harvested on days 8, 10, 12 and split to allow the analysis of cell cycle and Annexin V staining simultaneously. The apoptosis ratio was detected by an Annexin V-APC/7-AAD double staining assay (SONY 3804610) and cells were prepared according to the manufacturer’s recommendations. Cells for the cell cycle analysis were collected by centrifugation at 500× g for 5 min at 4 °C. The pellets were washed once with cold PBS and then fixed with 70% ethanol on ice for 30 min. Afterwards, the cells were washed once with cold PBS and stained with propidium iodide (Invitrogen P3566) for 30 min at 37 °C. Samples were measured using an Attune NxT acoustic focusing cytometer (Life Technologies), data were analyzed by FlowJo.
For orientation: In flow cytometry, cells or beads pass a laser one at a time.

In data set [2] the test system is MV4-11 cells. The data set can be described thus: Flow cytometry apoptosis analysis (Annexin V-APC/7-AAD). Type of data set: cell-based, human. Particulars: MV4-11. The procedure: as §1, §2
Another data set relates to NOMO-1 cells (MLL-AF9). Briefly: Cell proliferation, trypan blue counting. The format is cell-based. To be noted: Homo sapiens, 360 h; NOMO-1 (AF9), 15-day treatment; read-out: EC50 of the proliferation inhibition. The procedure:
(§3) For assessment of cell proliferation and viability in human cell lines, exponentially growing cells were placed, in triplicate, in 96-well plates at a density of 35,000 cells/well at a final volume of 100 µL. […] The viable cell number was determined every 3–4 days for up to 15 days to 21 days using trypan blue counting using Cellometer Disposable Counting Chambers for the Cellometer Mini Automated Cell Counter.

In a further data set the test system is KOPN8 cells (MLL-ENL). Briefly: Cell proliferation, trypan blue counting. Particulars: Homo sapiens, KOPN-8, 360 h, 15-day treatment, read-out: EC50 of the proliferation inhibition. Type of data set: cell-based. The procedure: as §3
The next data set deals with MOLM-13 cells (MLL-AF9). Briefly: Cell proliferation, trypan blue counting. The format is cell-based. Particulars: Homo sapiens, 360 h; MOLM-13 (AF9), 15-day treatment; read-out: EC50 of the proliferation inhibition.
In another data set the test system is H3K79me2 in MV4-11 cells. Briefly: Western blot of H3K79me2 normalized to total H3. Particulars: MV4-11, 4 days, increasing concentrations. The format is cell-based, human. The procedure:
Next, we evaluated the effect on the demethylation of H3K79 in MLL-AF9 MOLM13 cells (Figure 7B).
The non-adherent cell lines MV4-11, MOLM-13, and KOPN8 exponentially growing cells were plated in 12-well plates (1 plate for each experiment) at a rate of 500,000 cells per well at a final volume of 2 mL. The cells were incubated in the presence of increasing inhibitor concentrations (0.1, 0.32, 1, 3.2, 10 µM). The cells (1 to 2 million) were harvested at the time chosen according to the line in order to extract the histones and the RNAs.
For the isolation of histones from cells, 1 to 2 million cells were collected, after exposure to the chosen treatment, by centrifugation at 200× g and lysed by 5 min of incubation on ice in 250 μL of the nuclear extraction buffer (10 mM Tris-HCl, 10 mM MgCl2, 25 mM KCl, 1% Triton X-100, 8.6% sucrose, Roche Protease inhibitor tablet 1836145). The nuclei were collected by centrifugation at 600× g for 5 min at 4 °C. The supernatant was removed and the histones were extracted for 1 h with 0.4 N cold sulfuric acid. The extracts were clarified by centrifugation at 10,000× g for 10 min at 4 °C and transferred to a microcentrifuge tube containing a 10× volume of ice-cold acetone. The histones were precipitated at ‒20 °C overnight and recovered by centrifugation at 1500× g for 10 min in the form of a pellet and then resuspended in 80 μL of water. Histones were quantified by absorbance measured by a nanodrop at 276 nm.
After extraction, the histones (500ng) were separated on 4–20% Tris-Glycine gels (Invitrogen) and transferred onto a nitrocellulose membrane ([…]) using the iBlot® Gel Transfer Stacks Nitrocellulose kit Mini (Invitrogen). After blocking nonspecific sites for 1 h at room temperature in a solution of 1X TBS at 5% milk, the membrane was incubated with rabbit anti-H3K79me2 (ab3594, 1/1000) or anti-H3 (ab1791)1/1000) overnight at 4 °C or 1 h at RT. The membrane was then washed three times for 5 min in a 1X TBS solution containing 0.05% Tween20 and was then incubated with an HRP anti-rabbit secondary antibody (NA934V, 1/10,000) for 1 h at RT. […]
Background: A western blot detects proteins with antibodies after separation by electrophoresis.

In another data set the test system is MV4-11 cells (MLL-AF4). The data set can be described thus: Cell proliferation and viability, trypan blue counting. Type of data set: cell-based, human.

Each structure is given as a SMILES string.

For `CC(C)[C@@H](CCCNC(=O)Nc1ccc(C(C)(C)C)cc1)N[C@H]1C[C@@H](n2cnc3c(N)ncnc32)[C@H](O)[C@@H]1O` [Dia1, 1-((R)-4-(((1S,2R,3S,4R)-4-(6-amino-9H-purin-9-yl)-2,3-dihydroxycyclopentyl)amino)-5-methylhexyl)-3-(4-(tert-butyl)phenyl)urea], on recombinant hDOT1L, the IC50 amounted to 316 nM.
Take `CC(C)N(CCCNC(=O)Nc1ccc(C(C)(C)C)cc1)C[C@H]1O[C@@H](n2ccc3c(N)ncnc32)[C@H](O)[C@@H]1O` [EPZ-4777, reference compound]: the half-life in the data set “Microsomal stability” was determined as 5.3 min.
Turning to `CC(C)N(C[C@H]1O[C@@H](n2cnc3c(N)ncnc32)[C@H](O)[C@@H]1O)[C@H]1C[C@@H](CCc2nc3cc(C(C)(C)C)ccc3[nH]2)C1` [EPZ-5676, reference compound], the “effect on the cell cycle” value with MV4-11 cells [1] was “increase in cells in subG1”. Further, the effect on apoptosis entry with MV4-11 cells [2] is reported as “increase in apoptosis”. For the same molecule, the EC50 in the data set with NOMO-1 cells (MLL-AF9) is 562 ± 15 nM; in the data set on KOPN8 cells (MLL-ENL), 86 ± 4 nM; with MOLM-13 cells (MLL-AF9) it was 92 ± 2 nM; in the data set with MV4-11 cells (MLL-AF4) (Homo sapiens, 360 h, MV4-11 (AF4), 15-day treatment, read-out: EC50 of the proliferation inhibition) it was 21 ± 1 nM. For the same molecule, the “H3K79me2 methylation compared to DMSO treated cells” value in the data set with H3K79me2 in MV4-11 cells is given as “efficient decrease in methylation”. For the same molecule, in the data set “Microsomal stability”, the half-life stood at 5.7 min. Moreover, the “effect on cell viability / proliferation” value in the data set on MV4-11 cells (MLL-AF4) (MV4-11, after 8 days of treatment) is given as “cell viability decreased by half”.
